From PubChem BioAssay (NCI)
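Five compound concentrations were applied to cells in 96-well plates for 48 hours; endpoints were derived by simple linear interpolation of the resulting dose-response curve. GI50: concentration for 50% inhibition of growth. TGI denotes the concentration required for complete inhibition of growth.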

What was measured:
Test in all cases: NCI anticancer screen, dose series, 48 h
NCI-H522 lung = test system: NCI-H522 lung
SNB-19 CNS = test system: SNB-19 CNS
UACC-257 melanoma = test system: UACC-257 melanoma
A498 renal = test system: A498 renal
SF-539 CNS = test system: SF-539 CNS
SNB-75 CNS = test system: SNB-75 CNS
HT29 colon = test system: HT29 colon
EKVX NSCLC = test system: EKVX NSCLC
RXF 393 renal = test system: RXF 393 renal
U251 CNS = test system: U251 CNS
MDA-MB-435 = test system: MDA-MB-435
SK-OV-3 ovarian = test system: SK-OV-3 ovarian
CAKI-1 renal = test system: CAKI-1 renal
SR leukemia = test system: SR leukemia
DU-145 prostate = test system: DU-145 prostate
ACHN renal = test system: ACHN renal
HCT-15 colon = test system: HCT-15 colon
NCI-H23 lung = test system: NCI-H23 lung
SK-MEL-28 melanoma = test system: SK-MEL-28 melanoma
MOLT-4 leukemia = test system: MOLT-4 leukemia
SK-MEL-2 melanoma = test system: SK-MEL-2 melanoma
COLO 205 colon = test system: COLO 205 colon
NCI-H226 lung = test system: NCI-H226 lung
HS 578T breast = test system: HS 578T breast
BT-549 breast = test system: BT-549 breast
KM12 colon = test system: KM12 colon
HL-60(TB) leukemia = test system: HL-60(TB) leukemia
786-0 renal = test system: 786-0 renal
SF-268 CNS = test system: SF-268 CNS
SN12C renal = test system: SN12C renal
K-562 leukemia = test system: K-562 leukemia
SK-MEL-5 melanoma = test system: SK-MEL-5 melanoma
SW-620 colon = test system: SW-620 colon
RPMI-8226 leukemia = test system: RPMI-8226 leukemia
SF-295 CNS = test system: SF-295 CNS
A549 NSCLC = test system: A549 NSCLC
IGROV1 ovarian = test system: IGROV1 ovarian
OVCAR-8 ovarian = test system: OVCAR-8 ovarian
NCI-H460 lung = test system: NCI-H460 lung
OVCAR-4 ovarian = test system: OVCAR-4 ovarian
MDA-MB-231 breast = test system: MDA-MB-231 breast
LOX IMVI melanoma = test system: LOX IMVI melanoma
OVCAR-5 ovarian = test system: OVCAR-5 ovarian
PC-3 prostate = test system: PC-3 prostate
OVCAR-3 ovarian = test system: OVCAR-3 ovarian
HCC-2998 colon = test system: HCC-2998 colon
MALME-3M melanoma = test system: MALME-3M melanoma
UACC-62 melanoma = test system: UACC-62 melanoma
MCF7 breast = test system: MCF7 breast
NCI/ADR-RES ovarian = test system: NCI/ADR-RES ovarian
UO-31 renal = test system: UO-31 renal
HOP-62 NSCLC = test system: HOP-62 NSCLC
T-47D breast = test system: T-47D breast
TK-10 renal = test system: TK-10 renal
HCT-116 colon = test system: HCT-116 colon
HOP-92 NSCLC = test system: HOP-92 NSCLC
CCRF-CEM leukemia = test system: CCRF-CEM leukemia

C=CCN(CC=C)C(=O)[C@H](CC)[C@@H]1CC[C@@H](C)[C@@H]([C@H](C)[C@@H](O)[C@@H](C)C(=O)[C@H](CC)C2O[C@]3(C=C[C@@H](O)[C@]4(CC[C@@](C)([C@H]5CC[C@](O)(CC)[C@H](C)O5)O4)O3)[C@H](C)C[C@@H]2C)O1 (some centres undefined)
GI50 (NCI-H522 lung): 2.08 µM
TGI (NCI-H522 lung): 5.68 µM
GI50 (SNB-19 CNS): 3.08 µM
TGI (SNB-19 CNS): > 100 µM
GI50 (UACC-257 melanoma): 2.35 µM
TGI (UACC-257 melanoma): 8.25 µM
GI50 (A498 renal): 2.07 µM
TGI (A498 renal): 5.32 µM
GI50 (SF-539 CNS): 1.97 µM
TGI (SF-539 CNS): 3.91 µM
GI50 (SNB-75 CNS): 1.84 µM
TGI (SNB-75 CNS): 10.5 µM
GI50 (HT29 colon): 3.12 µM
TGI (HT29 colon): 16.1 µM
GI50 (EKVX NSCLC): 2.33 µM
TGI (EKVX NSCLC): 9.07 µM
GI50 (RXF 393 renal): 1.57 µM
TGI (RXF 393 renal): 3.47 µM
GI50 (U251 CNS): 2.78 µM
TGI (U251 CNS): 10.1 µM
GI50 (MDA-MB-435): 2.71 µM
TGI (MDA-MB-435): 8.5 µM
GI50 (SK-OV-3 ovarian): 3.51 µM
TGI (SK-OV-3 ovarian): > 100 µM
GI50 (CAKI-1 renal): 1.75 µM
TGI (CAKI-1 renal): 7.63 µM
GI50 (SR leukemia): 2.41 µM
TGI (SR leukemia): 7.1 µM
GI50 (DU-145 prostate): 2.46 µM
TGI (DU-145 prostate): 5.61 µM
GI50 (ACHN renal): 2.9 µM
TGI (ACHN renal): 11 µM
GI50 (HCT-15 colon): 2.05 µM
TGI (HCT-15 colon): 4.81 µM
GI50 (NCI-H23 lung): 2.48 µM
TGI (NCI-H23 lung): 6.93 µM
GI50 (SK-MEL-28 melanoma): 4.45 µM
TGI (SK-MEL-28 melanoma): 21.6 µM
GI50 (MOLT-4 leukemia): 2.33 µM
TGI (MOLT-4 leukemia): 6.01 µM
GI50 (SK-MEL-2 melanoma): 2.62 µM
TGI (SK-MEL-2 melanoma): 7.47 µM
GI50 (COLO 205 colon): 2.56 µM
TGI (COLO 205 colon): 6.23 µM
GI50 (NCI-H226 lung): 1.86 µM
TGI (NCI-H226 lung): 4.92 µM
GI50 (HS 578T breast): 2.22 µM
TGI (HS 578T breast): 6.27 µM
GI50 (BT-549 breast): 3.03 µM
TGI (BT-549 breast): 12.3 µM
GI50 (KM12 colon): 1.87 µM
TGI (KM12 colon): 3.65 µM
GI50 (HL-60(TB) leukemia): 2.09 µM
TGI (HL-60(TB) leukemia): 4.76 µM
GI50 (786-0 renal): 2.19 µM
TGI (786-0 renal): 5.48 µM
GI50 (SF-268 CNS): 3.27 µM
TGI (SF-268 CNS): 34.8 µM
GI50 (SN12C renal): 2.2 µM
TGI (SN12C renal): 6.42 µM
GI50 (K-562 leukemia): 2.64 µM
TGI (K-562 leukemia): 11 µM
GI50 (SK-MEL-5 melanoma): 1.72 µM
TGI (SK-MEL-5 melanoma): 3.15 µM
GI50 (SW-620 colon): 2.97 µM
TGI (SW-620 colon): 10.6 µM
GI50 (RPMI-8226 leukemia): 1.62 µM
TGI (RPMI-8226 leukemia): 5.43 µM
GI50 (SF-295 CNS): 1.87 µM
TGI (SF-295 CNS): 5.23 µM
GI50 (A549 NSCLC): 3.37 µM
TGI (A549 NSCLC): > 100 µM
GI50 (IGROV1 ovarian): 2.41 µM
TGI (IGROV1 ovarian): 8.53 µM
GI50 (OVCAR-8 ovarian): 3.48 µM
TGI (OVCAR-8 ovarian): 76.4 µM
GI50 (NCI-H460 lung): 1.97 µM
TGI (NCI-H460 lung): 4.35 µM
GI50 (OVCAR-4 ovarian): 2.63 µM
TGI (OVCAR-4 ovarian): 10.1 µM
GI50 (MDA-MB-231 breast): 1.77 µM
TGI (MDA-MB-231 breast): 3.84 µM
GI50 (LOX IMVI melanoma): 1.52 µM
TGI (LOX IMVI melanoma): 3.22 µM
GI50 (OVCAR-5 ovarian): 2.25 µM
TGI (OVCAR-5 ovarian): 7.26 µM
GI50 (PC-3 prostate): 2.31 µM
TGI (PC-3 prostate): 12.4 µM
GI50 (OVCAR-3 ovarian): 1.92 µM
TGI (OVCAR-3 ovarian): 4.57 µM
GI50 (HCC-2998 colon): 2.41 µM
TGI (HCC-2998 colon): 7.26 µM
GI50 (MALME-3M melanoma): 1.76 µM
TGI (MALME-3M melanoma): 3.6 µM
GI50 (UACC-62 melanoma): 1.66 µM
TGI (UACC-62 melanoma): 4.09 µM
GI50 (MCF7 breast): 1.95 µM
TGI (MCF7 breast): 5.14 µM
GI50 (NCI/ADR-RES ovarian): 2.7 µM
TGI (NCI/ADR-RES ovarian): 9.82 µM
GI50 (UO-31 renal): 2.16 µM
TGI (UO-31 renal): 7.46 µM
GI50 (HOP-62 NSCLC): 3.22 µM
TGI (HOP-62 NSCLC): 12.2 µM
GI50 (T-47D breast): 2.37 µM
TGI (T-47D breast): 13.5 µM
GI50 (TK-10 renal): 3.65 µM
TGI (TK-10 renal): > 100 µM
GI50 (HCT-116 colon): 2.81 µM
TGI (HCT-116 colon): 10.1 µM
GI50 (HOP-92 NSCLC): 1.39 µM
TGI (HOP-92 NSCLC): 4.31 µM
GI50 (CCRF-CEM leukemia): 3.19 µM
TGI (CCRF-CEM leukemia): 11.5 µM
